Assay results from patent publication US20130079364A1, “Peripheral Opioid Agonists and Peripheral Opioid Antagonists” (SIGNATURE THERAPEUTICS, INC., priority 2010, published 2013).
Read-outs that look alike come from different tables or passages of the source.

Legend:
[1] = Pharmacokinetics following IV administration to rats (plasma, HPLC/MS); conditions: male, Sprague Dawley, rat
[2] = male, Sprague Dawley, rat, in vivo, iv, 10 mg/kg
[3] = Pharmacokinetics following PO administration to rats (plasma, HPLC/MS); conditions: male, Sprague Dawley, rat, 20 mg/kg
Experimental: (§1) At specified time points, blood samples were drawn, harvested for plasma via centrifugation at 5,400 rpm at 4° C. for 5 min, and 100 microliters (μl) plasma transferred from each sample into a fresh tube containing 2 μl of 50% formic acid. The tubes were vortexed for 5-10 seconds, immediately placed in dry ice and then stored in a −80° C. freezer until analysis by HPLC/MS.
as §1, with “μl” for “microliters (μl)”
as §1, with “μl” for “microliters (μl)”
as §1, with “μl” for “microliters (μl)”

human μ-opioid receptor [4] = molecular target: T1, human μ-opioid receptor (Homo sapiens, UniProt P35372); assay: cell-based; conditions: for EC50: CHO cells expressing human μ-opioid receptor, read-out: Agonist EC50
T1 construct: expressed in transfected cells; host or cells: CHO (Chinese hamster ovary) cells
Source text: (§2) This Example measures the ability of certain compounds of the present disclosure to effect an agonist or antagonist response when exposed to recombinant human μ-opioid receptor expressed in CHO cells.
(§3) The general procedure follows the protocol described by Wang, J.-B., Johnson, P. S., Perscio, A. M., Hawkins, A. L., Griffin, C. A. and Uhl, G. R. (1994). FEBS Lett., 338: 217-222. More specifically, the assays included each of the compounds indicated in Table 1 and recombinant Chinese hamster ovary (CHO) cells expressing the human μ-opioid receptor on their cell surfaces. The control reaction included 1 μM DAMGO. The reaction mixtures were incubated at 37° C. for 10 min, and the reaction product was cyclic AMP (cAMP). The samples were submitted to homogeneous time resolved fluorescence (HTRF®). EC50 values (concentration producing a half-maximal specific response) were determined by non-linear regression fit using the Hillplot software.

inflammatory pain = assay: Carrageenan-induced inflammatory paw model (Randall Selitto test); assay type: in vivo, Sprague-Dawley rats; conditions: 200 mg/kg Compound AG-2 oral gavage three hours after carrageenan; FIG. 10
Experimental: The carrageenan-induced inflammatory paw model (see, e.g., Bileviciute-Ljungar I et al, 2006, J Pharmacol Exp Ther 317, 220-227) was used to assess the ability of peripheral opioid agonist Compound AG-2 to reduce inflammatory pain, by measuring paw withdrawal latency in response to mechanical stimulation of the paw.
Sprague-Dawley rats, fasted for approximately 18 hours prior to compound administration, were used for this study. Rats were injected in the plantar surface of the right hindpaw with 100 ul of a 1% carrageenan solution formulated in water (carrageenan available from Spectrum Chemical Manufacturing Corporation, Gardena, Calif.) three hours prior to compound administration, in order to elicit maximum edema formation. The hindpaw withdrawal latency to mechanical stimulation for each paw was tested before compound administration for use as a pre-treatment baseline, and at specific time points after compound administration using the Randall Selitto test (instrument available from IITC Inc. Life Science, Woodland Hills, Calif.). Briefly, the hindpaw was pinched until the animal retracted its paw. The amount of force (in grams) required to elicit a withdrawal response was assessed. Two repeat measures were taken at each time point, and the averaged value from the inflamed paw was used to quantify the percentage of change from the pre-treatment baseline. […]

[5] = Plasma and cerebrospinal fluid penetration following IV administration to rats; conditions: for Compound conc. in CSF / Compound conc. in plasma / Plasma/CSF partitioning coefficient / concentration at 2 min: rats; for concentration at 2 min: male, Sprague Dawley, rat, in vivo, iv, 10 mg/kg, Compound conc. in CSF
CNS opioid receptors = assay: Rat tail flick latency assay, morphine induced analgesia; assay type: in vivo, Sprague Dawley rats; conditions: antagonist subcutaneously 70 min after 5 mg/kg morphine; Compound AN-1, AN-6 0.3 mg/kg, naltrexone 1.8 mg/kg; FIG. 8
Experimental: A rat tail flick latency assay (see, e.g., Tejwani G et al., 2002, Anesth Analg 94, 1542-1546) was used to determine whether peripheral opioid antagonists of the embodiments were capable of effecting antagonist activity at opioid receptors in the central nervous system. In such an assay, the tails of rats are exposed to a noxious stimulus, such as heat, and tail withdrawal latency is measured. The latency (i.e., time between exposure and reaction) is an indication of the amount of pain experienced by the rat.
In this study, the tails of healthy male Sprague Dawley rats (5 per group) were painted with India ink (i.e., a 6-cm portion, starting at the tip). The rats were then placed in Broome Restrainers and allowed to acclimate for at least 15 min. At the conclusion of the acclimation period, baseline tail withdrawal latencies (baseline latency) were measured by exposing the rats to a focused light beam of 80 volts at a position 6.5 cm above the tail until the rats flicked their tail out of the path of the light beam. This step was repeated twice for each rat, in two spots, i.e., 2 cm and 4 cm from the tip of the tail. The responses were averaged and used as a baseline latency value for comparison to post-drug treatment latency values.

human μ-opioid receptor [6] = molecular target: T1, human μ-opioid receptor; assay: In vitro human μ-opioid receptor antagonist cellular functional assay (cAMP, HTRF); assay type: cell-based; conditions: for EC50: CHO cells expressing human μ-opioid receptor
Source text: as §2, §3

[7] = IV 10 mg/kg Compound AN-1, 2-minute time point
[8] = IV 10 mg/kg of each compound, 2-min time point (Table 12)

T1 sequence (P35372 whole entry): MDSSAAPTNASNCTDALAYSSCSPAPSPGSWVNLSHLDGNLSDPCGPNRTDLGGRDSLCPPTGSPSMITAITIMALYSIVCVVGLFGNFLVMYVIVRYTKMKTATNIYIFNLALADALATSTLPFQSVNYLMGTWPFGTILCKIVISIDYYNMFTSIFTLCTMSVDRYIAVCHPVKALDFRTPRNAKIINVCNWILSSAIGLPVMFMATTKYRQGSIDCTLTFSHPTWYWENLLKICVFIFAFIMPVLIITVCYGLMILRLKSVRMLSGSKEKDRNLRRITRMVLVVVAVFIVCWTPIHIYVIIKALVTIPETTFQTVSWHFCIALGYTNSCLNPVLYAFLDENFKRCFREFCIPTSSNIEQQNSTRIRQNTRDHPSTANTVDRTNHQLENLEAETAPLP

## COc1ccc2c3c1O[C@H]1C(OC(=O)N(C)CCNC(=O)[C@@H](CCCNC(=N)N)NC(=O)CC(=O)O)=CC[C@@]4(O)[C@@H](C2)N(C)CC[C@]314 [Compound AG-2, N-(oxycodone-6-enol-carbonyl-methylamino)ethylamine-D-arginine-malonic acid]
[1]; 2 mg/kg
  Cmax: 3410 ng/mL
[2]
  Compound conc. in CSF: 22.8 ng/mL
  Compound conc. in plasma: 28,600 ng/mL
  Plasma/CSF partitioning coefficient: 1,254
[3]
  Cmax: 46.1 ± 0.9 ng/mL
  Tmax: 37.5 ± 15 min
Human μ-opioid receptor [4]
  OC/Compound AG-2 relative potency: 10.9
Human μ-opioid receptor [4]; Table 1, Example 9, 37° C. 10 min
  EC50: 850 nM
Inflammatory pain
  increase in pain tolerance compared to the untreated rats: approximately 50%

## CN(CCNC(=O)[C@@H](CCCNC(=N)N)NC(=O)CC(=O)O)C(=O)OC1=CC[C@@]2(O)[C@H]3Cc4ccc(O)c5c4[C@@]2(CCN3CC2CC2)[C@H]1O5 [Compound AN-1, N-(naltrexone-6-enol-carbonyl-methylamino)ethylamine-D-arginine-malonic acid]
[1]; 10 mg/kg
  Cmax: 46300 ng/mL
[5]; 620/9.6
  relative plasma/CSF partitioning coefficient of Compound AN-1 to naltrexone: about 65
[5]; [7]
  Compound conc. in CSF: 74.7 ng/mL
  Compound conc. in plasma: 46,300 ng/mL
  Plasma/CSF partitioning coefficient: 620
[3]
  AUC: 139 ± 32 ng·h/mL
  Cmax: 41 ± 13 ng/mL
  Tmax: 45 ± 17.4 min
CNS opioid receptors
  effect on morphine induced analgesia (% MPE, tail flick): no inhibition of analgesia
Human μ-opioid receptor [6]; Antagonist EC50, Table 1, Example 9, 37° C. 10 min
  EC50: 180 nM
Human μ-opioid receptor [6]; EC50 at the human μ-opioid receptor, naltrexone to Compound AN-1
  NTX/Compound AN-1 relative potency: 6.0

## C=CCN1CC[C@]23c4c5ccc(O)c4O[C@H]2C(OC(=O)N(C)CCNC(=O)[C@@H](CCCNC(=N)N)NC(=O)CC(=O)O)=CC[C@@]3(O)C1C5 [Compound AN-4, N-(naloxone-6-enol-carbonyl-methylamino)ethylamine-D-arginine-malonic acid]
[5]; [8]
  Compound conc. in CSF: 101 ng/mL
  Compound conc. in plasma: 49,200 ng/mL
  Plasma/CSF partitioning coefficient: 487

## CN(CCNC(=O)[C@@H](CCCCN)NC(=O)CC(=O)O)C(=O)OC1=CC[C@@]2(O)C3Cc4ccc(O)c5c4[C@@]2(CCN3CC2CC2)[C@H]1O5 [Compound AN-6, N-(naltrexone-6-enol-carbonyl-methylamino)ethylamine-D-lysine-malonic acid]
[5]; [8]
  Compound conc. in CSF: 95.0 ng/mL
  Compound conc. in plasma: 79,400 ng/mL
  Plasma/CSF partitioning coefficient: 836
CNS opioid receptors
  effect on morphine induced analgesia (% MPE, tail flick): no inhibition of analgesia

## O=C1CC[C@@]2(O)[C@H]3Cc4ccc(O)c5c4[C@@]2(CCN3CC2CC2)[C@H]1O5 [Naltrexone, naltrexone, reference compound]
[5]; [7]
  concentration at 2 min: 7.44 ng/mL
  Compound conc. in plasma: 71.1 ng/mL
[5]; IV 10 mg/kg Compound AN-3, 2-minute time point
  concentration at 2 min: 0.813 ng/mL
[2]
  Compound conc. in plasma: 9.17 ng/mL
CNS opioid receptors
  effect on morphine induced analgesia (% MPE, tail flick): rapid inhibition of analgesia

## CC(=O)N[C@H](CC(=O)O)C(=O)NCCN(C)C(=O)OC1=CC[C@@]2(O)C3Cc4ccc(O)c5c4[C@@]2(CCN3CC2CC2)[C@H]1O5 [Compound AN-7, N-(naltrexone-6-enol-carbonyl-methylamino)ethylamine-D-aspartic acid-acetate]
[5]; [8]
  Compound conc. in CSF: 462 ng/mL
  Compound conc. in plasma: 76,600 ng/mL
  Plasma/CSF partitioning coefficient: 166
Human μ-opioid receptor [6]; Antagonist EC50, Table 15, Example 24
  EC50: 300 nM
Human μ-opioid receptor [6]; EC50 at the human μ-opioid receptor, naltrexone to Compound AN-7
  NTX/Compound AN-7 relative potency: 8.6

## CN(CCNC(=O)[C@@H](CCCNC(=N)N)NC(=O)CC(=O)O)C(=O)OC1=CCC2C3Cc4ccc(O)c5c4[C@@]2(CCN3C)[C@H]1O5 (stereo partly drawn) [Compound AG-4, N-(hydromorphone-6-enol-carbonyl-methyl-amino)ethylamine-D-arginine-malonic acid]
Human μ-opioid receptor [4]; EC50 at the human μ-opioid receptor, hydromorphone to Compound AG-4
  HM/Compound AG-4 relative potency: 16.1
Human μ-opioid receptor [4]; Table 15, Example 24
  EC50: 37 nM
